In patent US20230197192A1, “SELECTING NEOANTIGENS FOR PERSONALIZED CANCER VACCINE” (AMAZON TECHNOLOGIES, INC., priority 2020, published 2023):
Where no end group is shown, it is not given here.

assay: Visible dissolution of peptides in DMSO / 0.9% NaCl for pool formulation; type: physicochemical; conditions: not given
Method: Groups of peptides are selected and pooled. Up to four (4) pools with not more than (NMT) five (5) peptides in each pool were prepared. Each peptide was dissolved in 5.538% (v/v) DMSO followed by 0.9% NaCl solution, at a concentration of each peptide at 0.4158 mg/mL. Peptides which were visibly dissolved were accepted for that group's pool. Upon successful pooling of all peptides within a group, the pool was filtered through a 0.2 μm Nylon filter. Peptides were shipped in sterile tubes and labeled with Pool name, lot #, components, manufacturing data, quantity/concentration and storage conditions.

Sequence | Solubility
TYPEADSFPSWAAAHRKGSS [DDDDD.20] | Clear

same assay, conditions: Peptide Synthesis Engineering Run Batch for Sample GGGGG; visual appearance of the peptide solution (Clear / Semi Cloudy / Cloudy)

Sequence | Visual solubility (appearance of the peptide solution)
STAPAEATLPKPGEAEAP [GGGGG.16] | Clear
TSAPGSSRLAA [GGGGG.47] | Clear
TVDMLQCLRFPGLALPHTRAPSPLG [GGGGG.35] | Clear
VALSVRPI [GGGGG.37] | Clear
VDLKFPASVPTGAQDLISKL [GGGGG.25] | Clear
VLGTSAPGSSRLAAVDLGG [GGGGG.2] | Clear
VSPDIFMQSHL [GGGGG.40] | Clear
YSGIQESSSASPLSIKKCPI [GGGGG.29] | Clear

same assay, conditions: Peptide synthesis engineering run batch for sample DDDDD_2020; appearance of the solution

Sequence | Solubility
TWHRGDAL [DDDDD.34] | Clear
WLPELPSLPSNGDPPAICE [DDDDD.15] | Clear

same assay, conditions: Peptide synthesis engineering run batch for sample FFFFF; appearance of the solution

Sequence | Solubility
TGQDMLAL [FFFFF.36] | Clear
TPSAPEGYDLKIGLFLAPRRGSLPD [FFFFF.17] | Clear
VGRAWDAITDHLVGLCISKSP [FFFFF.19] | Clear
YGRTVVPFLVPGTSQLGQ [FFFFF.9] | Clear
YIHTSVSQDFSQSVPGTTSSPL [FFFFF.10] | Clear
YKTDLHSL [FFFFF.37] | Clear
